Results published in patent publication US8076356B2, “Triazolopyridinylsulfanyl derivatives as P38 map kinase inhibitors” (Pfizer Inc., priority 2004, dated 2011).

tested on: TNFα release from human peripheral blood mononuclear cells; assay: TNFα screen; type: cell-based; conditions: LPS-stimulated human peripheral blood mononuclear cells, 18 hours incubation, TNFα in supernatant by ELISA; read-out: TNF IC50
Method: Venous blood is collected from healthy volunteers and the mononuclear cells purified by centrifugation through Histopaque (Ficoll) cushions. TNFα production from these cells is stimulated by addition of lipopolysaccharide. After 18 hours incubation in the presence of LPS, the cell supernatant is removed and the concentration of TNFα in the supernatant determined by ELISA.

Q: How did the IC50 turn out when `CC(C)(C)c1cc(NC(=O)NCc2ccccc2Sc2ccc3nnc(-c4ccccc4O)n3c2)n(-c2cccc(C#N)c2)n1` [Example 51] was run?
A: Its IC50 is 0.7 nM.

Q: For `CC(C)(C)c1cc(NC(=O)NCc2ccccc2Sc2ccc3nnc(-c4ccccc4Cl)n3c2)n(-c2cccc(O)c2)n1` [Example 54], which IC50 is on record?
A: The IC50 was 0.7 nM.

Q: How did the IC50 turn out when `CC(C)(C)c1cc(NC(=O)NCc2ccccc2Sc2ccc3nnc(-c4ccccc4O)n3c2)n(-c2cccc(O)c2)n1` [Example 55] was run?
A: Its IC50 is 0.9 nM.

Q: Which IC50 does the source give for `Cc1cc(O)cc(-n2nc(C(C)(C)C)cc2NC(=O)NCc2ccccc2Sc2ccc3nnc(C(C)C)n3c2)c1` [Example 57] here?
A: The IC50 was 1.2 nM.

Q: `Cc1cccc(-n2nc(C(C)(C)C)cc2NC(=O)NCc2ccccc2Sc2ccc3nnc(-c4cc(Cl)ccc4O)n3c2)c1` [Example 58] was tested. Which IC50 did it give?
A: Its IC50 is 1.6 nM.

Q: `CSCC(C)(C)c1cc(NC(=O)NCc2ccccc2Sc2ccc3nnc(-c4ccccc4O)n3c2)n(-c2cccc(OCCO)c2)n1` [Example 59] was tested. Which IC50 did it give?
A: The IC50 was 1.3 nM.

Q: How did the IC50 turn out when `CSCC(C)(C)c1cc(NC(=O)NCc2ccccc2Sc2ccc3nnc(-c4ccccc4O)n3c2)n(-c2ccccc2)n1` [Example 60] was run?
A: The IC50 was 1.4 nM.

Q: Which IC50 does the source give for `CSCC(C)(C)c1cc(NC(=O)NCc2ccccc2Sc2ccc3nnc(-c4ccccc4O)n3c2)n(-c2cccc(F)c2)n1` [Example 63] here?
A: The IC50 was 1.4 nM.

Q: `CSCC(C)(C)c1cc(NC(=O)NCc2ccccc2Sc2ccc3nnc(-c4ccccc4O)n3c2)n(-c2ccc(F)c(F)c2)n1` [Example 64] was tested. Which IC50 did it give?
A: Its IC50 is 0.9 nM.

Q: `CC(C)c1nnc2ccc(Sc3ccccc3CNC(=O)Nc3cc(C(C)(C)C)nn3-c3ccc(O)c(Cl)c3)cn12` [Example 73] was tested. Which IC50 did it give?
A: Its IC50 is 0.9 nM.

Q: How did the IC50 turn out when `CCc1cc(-n2nc(C(C)(C)C)cc2NC(=O)NCc2ccccc2Sc2ccc3nnc(C(C)C)n3c2)ccc1O` [Example 74] was run?
A: The IC50 was 4 nM.

Q: `CC(C)c1nnc2ccc(Sc3ccccc3CNC(=O)Nc3cc(C(C)(C)C)nn3-c3ccc(Cl)c(O)c3)cn12` [Example 76] was tested. Which IC50 did it give?
A: The IC50 was 0.8 nM.

Q: `CC(C)(C)c1cc(NC(=O)NCc2ccccc2Sc2ccc3nnc(-c4ccc(O)cc4Cl)n3c2)n(-c2ccc(F)c(F)c2)n1` [Example 77] was tested. Which IC50 did it give?
A: Its IC50 is 2.7 nM.

Q: For `CC(C)(C)c1cc(NC(=O)NCc2ccccc2Sc2ccc3nnc(-c4cc(O)ccc4Cl)n3c2)n(-c2ccc(F)c(F)c2)n1` [Example 78], which IC50 is on record?
A: Its IC50 is 0.8 nM.

same assay, conditions: PBMC; LPS-stimulated human peripheral blood mononuclear cells, 18 hours incubation, TNFα in supernatant by ELISA; read-out: TNF IC50

Q: For `CSC(C)(C)c1cc(NC(=O)NCc2ccccc2Sc2ccc3nnc(C(C)C)n3c2)n(-c2cccc(O)c2)n1` [Example 26, N-{1-(3-Hydroxyphenyl)-3-[1-methyl-1-(methylthio)ethyl]-1H-pyrazol-5-yl}-N′-{2-[(3-isopropyl[1,2,4]triazolo[4,3-a]pyridin-6-yl)thio]benzyl}urea], which IC50 is on record?
A: Its IC50 is 1.6 nM.

Q: How did the IC50 turn out when `COc1ccc(-n2nc(C(C)(C)C)cc2NC(=O)NCc2ccccc2Sc2ccc3nnc(C(C)C)n3c2)cc1Cl` [Example 33, N-[3-tert-Butyl-1-(3-chloro-4-methoxyphenyl)-1H-pyrazol-5-yl]-N′-{2-[(3-isopropyl[1,2,4]triazolo[4,3-a]pyridin-6-yl)thio]-benzyl}urea] was run?
A: Its IC50 is 2 nM.

Q: `CC(C)c1nnc2ccc(Sc3ccccc3CNC(=O)Nc3cc(C(C)(C)C)nn3-c3cccnc3)cn12` [Example 34, N-(3-tert-Butyl-1-pyridin-3-yl-1H-pyrazol-5-yl)-N′-{2-[(3-isopropyl[1,2,4]triazolo[4,3-a]pyridin-6-yl)thio]benzyl}-urea] was tested. Which IC50 did it give?
A: The IC50 was 1.3 nM.

Q: How did the IC50 turn out when `Cc1ccc(-n2nc(C(C)(C)C)cc2NC(=O)NCc2ccccc2Sc2ccc3nnc(-c4cccc(O)c4Cl)n3c2)cc1` [Example 36, N-[3-tert-Butyl-1-(4-methylphenyl)-1H-pyrazol-5-yl]-N′-(2-{[3-(2-chloro-3-hydroxyphenyl)[1,2,4]triazolo[4,3-a]pyridin-6-yl]thio}benzyl)urea] was run?
A: The IC50 was 4.8 nM.

Q: For `CSC(C)(C)c1cc(NC(=O)NCc2ccccc2Sc2ccc3nnc(C(C)C)n3c2)n(-c2cccc(OCCO)c2)n1` [Example 37], which IC50 is on record?
A: The IC50 was 2.8 nM.

Q: For `CC(C)c1ccccc1-c1nnc2ccc(Sc3ccccc3CNC(=O)Nc3cc(C(C)(C)C)nn3-c3cccc(OCCO)c3)cn12` [Example 44, N-{3-tert-Butyl-1-[3-(2-hydroxyethoxy)phenyl]-1H-pyrazol-5-yl}-N′-(2-{[3-(2-isopropylphenyl)[1,2,4]triazolo[4,3-a]pyridin-6-yl]thio}benzyl)urea], which IC50 is on record?
A: The IC50 was 1.1 nM.

Q: How did the IC50 turn out when `COc1ccccc1-c1nnc2ccc(Sc3ccccc3CNC(=O)Nc3cc(C(C)(C)C)nn3-c3cccc(OCCO)c3)cn12` [Example 45, N-{3-tert-Butyl-1-[3-(2-hydroxyethoxy)phenyl]-1H-pyrazol-5-yl}-N′-(2-{[3-(2-methoxyphenyl)[1,2,4]triazolo[4,3-a]pyridin-6-yl]thio}benzyl)urea] was run?
A: Its IC50 is 1.4 nM.

Q: With `CC(C)(C)c1cc(NC(=O)NCc2ccccc2Sc2ccc3nnc(-c4ccccc4O)n3c2)n(-c2ccc(F)cc2)n1` [Example 46, N-[3-tert-Butyl-1-(4-fluorophenyl)-1H-pyrazol-5-yl]-N′-(2-{[3-(2-hydroxyphenyl)[1,2,4]triazolo[4,3-a]pyridin-6-yl]thio}benzyl)urea] as the molecule, how does the IC50 read?
A: The IC50 was 0.8 nM.

Q: With `CC(C)(C)c1cc(NC(=O)NCc2ccccc2Sc2ccc3nnc(-c4ccccc4O)n3c2)n(-c2cccnc2)n1` [Example 70, N-(3-tert-Butyl-1-pyridin-3-yl-1H-pyrazol-5-yl)-N′-(2-{[3-(2-hydroxyphenyl)[1,2,4]triazolo[4,3-a]pyridin-6-yl]thio}benzyl)urea] as the molecule, how does the IC50 read?
A: The IC50 was 0.9 nM.

Q: `CC(C)(C)c1cc(NC(=O)NCc2ccccc2Sc2ccc3nnc(-c4ccccc4O)n3c2)n(-c2ccccn2)n1` [Example 71, N-(3-tert-Butyl-1-pyridin-2-yl-1H-pyrazol-5-yl)-N′-(2-{[3-(2-hydroxyphenyl)[1,2,4]triazolo[4,3-a]pyridin-6-yl]thio}benzyl)urea] was tested. Which IC50 did it give?
A: Its IC50 is 3 nM.

Q: Which IC50 does the source give for `CC(C)(C)c1cc(NC(=O)NCc2ccccc2Sc2ccc3nnc(-c4ccccc4O)n3c2)n(-c2cccc(OCCO)c2)n1` [Example 80, N-{3-tert-Butyl-1-[3-(2-hydroxyethoxy)phenyl]-1H-pyrazol-5-yl}-N′-(2-{[3-(2-hydroxyphenyl)[1,2,4]triazolo[4,3-a]pyridin-6-yl]thio}benzyl)urea] here?
A: The IC50 was 1.1 nM.

Q: Which IC50 does the source give for `CSC(C)(C)c1cc(NC(=O)NCc2ccccc2Sc2ccc3nnc(-c4cc(Cl)ccc4O)n3c2)n(-c2cccc(C)c2)n1` [Example 86, N-(2-{[3-(5-Chloro-2-hydroxyphenyl)[1,2,4]triazolo[4,3-a]pyridin-6-yl]thio}benzyl)-N′-[3-[1-methyl-1-(methylthio)ethyl]-1-(3-methylphenyl)-1H-pyrazol-5-yl]urea] here?
A: Its IC50 is 0.8 nM.

Q: With `CSC(C)(C)c1cc(NC(=O)NCc2ccccc2Sc2ccc3nnc(-c4cc(Cl)ccc4O)n3c2)n(-c2ccc(C)cc2)n1` [Example 87, N-(2-{[3-(5-Chloro-2-hydroxyphenyl)[1,2,4]triazolo[4,3-a]pyridin-6-yl]thio}benzyl)-N′-[3-[1-methyl-1-(methylthio)ethyl]-1-(4-methylphenyl)-1H-pyrazol-5-yl]urea] as the molecule, how does the IC50 read?
A: The IC50 was 0.6 nM.

Q: With `CSc1ccccc1-c1nnc2ccc(Sc3ccccc3CNC(=O)Nc3cc(C(C)(C)C)nn3-c3cccc(O)c3)cn12` [Example 93, N-[3-tert-Butyl-1-(3-hydroxyphenyl)-1H-pyrazol-5-yl]-N′-[2-({3-[2-(methylthio)phenyl][1,2,4]triazolo[4,3-a]pyridin-6-yl}thio)benzyl]urea] as the molecule, how does the IC50 read?
A: The IC50 was 1.1 nM.

Q: How did the IC50 turn out when `CSC(C)(C)c1cc(NC(=O)NCc2ccccc2Sc2ccc3nnc(-c4ccccc4O)n3c2)n(-c2ccc(F)cc2)n1` [Example 94, N-{1-(4-Fluorophenyl)-3-[1-methyl-1-(methylthio)ethyl]-1H-pyrazol-5-yl}-N′-(2-{[3-(2-hydroxyphenyl)[1,2,4]triazolo[4,3-a]pyridin-6-yl]thio}benzyl)urea] was run?
A: The IC50 was 0.9 nM.

Q: For `CSC(C)(C)c1cc(NC(=O)NCc2ccccc2Sc2ccc3nnc(-c4ccccc4O)n3c2)n(-c2ccc(F)c(F)c2)n1` [Example 95, N-{1-(3,4-Difluorophenyl)-3-[1-methyl-1-(methylthio)ethyl]-1H-pyrazol-5-yl}-N′-(2-{[3-(2-hydroxyphenyl)[1,2,4]triazolo[4,3-a]pyridin-6-yl]thio}benzyl)urea], which IC50 is on record?
A: Its IC50 is 0.6 nM.

Q: For `COc1ccc(-n2nc(C(C)(C)C)cc2NC(=O)NCc2ccccc2Sc2ccc3nnc(-c4ccccc4O)n3c2)cc1` [Example 97, N-[3-tert-Butyl-1-(4-methoxyphenyl)-1H-pyrazol-5-yl]-N′-(2-{[3-(2-hydroxyphenyl)[1,2,4]triazolo[4,3-a]pyridin-6-yl]thio}benzyl)urea], which IC50 is on record?
A: The IC50 was 0.6 nM.

Q: Which IC50 does the source give for `COc1cccc(-n2nc(C(C)(C)C)cc2NC(=O)NCc2ccccc2Sc2ccc3nnc(-c4ccccc4O)n3c2)c1` [Example 98, N-[3-tert-Butyl-1-(3-methoxyphenyl)-1H-pyrazol-5-yl]-N′-(2-{[3-(2-hydroxyphenyl)[1,2,4]triazolo[4,3-a]pyridin-6-yl]thio}benzyl)urea] here?
A: The IC50 was 0.4 nM.

Q: How did the IC50 turn out when `CCC(C)(C)c1cc(NC(=O)NCc2ccccc2Sc2ccc3nnc(-c4ccccc4O)n3c2)n(-c2cccc(OCCO)c2)n1` [Example 100] was run?
A: Its IC50 is 1.1 nM.

Q: Which IC50 does the source give for `CCc1ccccc1-c1nnc2ccc(Sc3ccccc3CNC(=O)Nc3cc(C(C)(C)SC)nn3-c3cccc(OCCO)c3)cn12` [Example 102, N-(2-{[3-(2-Ethylphenyl)[1,2,4]triazolo[4,3-a]pyridin-6-yl]thio}benzyl)-N′-{1-[3-(2-hydroxyethoxy)phenyl]-3-[1-methyl-1-(methylthio)ethyl]-1H-pyrazol-5-yl}urea] here?
A: Its IC50 is 1.7 nM.

Q: How did the IC50 turn out when `CCc1ccccc1-c1nnc2ccc(Sc3ccccc3CNC(=O)Nc3cc(C(C)(C)C)nn3-c3cccc(OCCO)c3)cn12` [Example 104, N-{3-tert-Butyl-1-[3-(2-hydroxyethoxy)phenyl]-1H-pyrazol-5-yl}-N′-(2-{[3-(2-ethylphenyl)[1,2,4]triazolo[4,3-a]pyridin-6-yl]thio}benzyl)urea] was run?
A: Its IC50 is 1 nM.

Q: `Cc1ccccc1-c1nnc2ccc(Sc3ccccc3CNC(=O)Nc3cc(C(C)(C)C)nn3-c3cccc(OCCO)c3)cn12` [Example 105, N-{3-tert-Butyl-1-[3-(2-hydroxyethoxy)phenyl]-1H-pyrazol-5-yl}-N′-(2-{[3-(2-methylphenyl)[1,2,4]triazolo[4,3-a]pyridin-6-yl]thio}benzyl)urea] was tested. Which IC50 did it give?
A: Its IC50 is 0.6 nM.
